Measured values: ChEMBL document CHEMBL5528066, “Discovery of Novel N-(Anthracen-9-ylmethyl) Benzamide Derivatives as ZNF207 Inhibitors Promising in Treating Glioma” (J Med Chem, 2024)
Calls of active or inactive are those of the source. No cut-off for these calls is given here.

Tests used:
[1] = tested on: Hs 683; assay: Inhibition of sphere formation in human Hs 683 cells assessed as fold reduction in sphere initiating frequency at 1 uM incubated for 10 days by microscopic analysis relative to control; format: functional; details: time 10 day
[2] = Toxicity in male C57BL/6 mouse assessed as change in cellular structure of lung at 45 mg/kg, po administered once a day for 2 weeks by H and E staining based analysis; format: organism-based; details: in vivo, 336 h
[3] = tested on: Hs 683; assay: Inhibition of colony formation in human Hs 683 cells assessed as reduction in colony area at 5 uM treated on day 1 and measured after 14 days by crystal violet staining based microscopic analysis relative to control; format: functional; details: Hs 683, 336 h, time 14 day
[4] = tested on: LN-229; assay: Inhibition of cell migration in human LN-229 cells assessed as reduction in wound closure ability measured after 24 to 48 hrs by wound healing assay; format: functional, cell-based; details: dose 2.5-10 µM, time 24-48 hrs
[5] = tested on: Hs 683; assay: Inhibition of sphere formation in human Hs 683 cells at 4 uM measured after 10 days in well containing 100 cells by microscopic analysis; format: functional, cell-based; details: time 10.0 day
[6] = tested on: Hs 683; assay: Antiproliferative activity against human Hs 683 cells assessed as inhibition of cell growth measured after 72 hrs by CCK-8 assay; format: functional, cell-based; details: Hs 683, 72 h
[7] = Toxicity in male C57BL/6 mouse assessed as change in cellular structure of stomach at 45 mg/kg, po administered once a day for 2 weeks by H and E staining based analysis; format: organism-based; details: in vivo, 336 h
[8] = Toxicity in female C57BL/6 mouse assessed as change in cellular structure of liver at 45 mg/kg, po administered once a day for 2 weeks by H and E staining based analysis; format: organism-based; details: in vivo, 336 h
[9] = Drug concentration in female Sprague-Dawley rat liver at 45 mg/kg, po measured after 8 hrs by LC-MS/MS analysis; format: ADME, organism-based; details: read-out: Ct
[10] = Toxicity in male C57BL/6 mouse assessed as change in cellular structure of kidney at 45 mg/kg, po administered once a day for 2 weeks by H and E staining based analysis; format: organism-based; details: in vivo, 336 h
[11] = tested on: LN-229; assay: Inhibition of sphere formation in human LN-229 cells at 2 uM measured after 10 days in well containing 10 cells by microscopic analysis; format: functional, cell-based; details: time 10.0 day
[12] = tested on: LN-229; assay: Inhibition of sphere formation in human LN-229 cells at 8 uM measured after 10 days in well containing 100 cells by microscopic analysis; format: functional, cell-based; details: time 10.0 day
[13] = Drug concentration in male Sprague-Dawley rat spleen at 45 mg/kg, po measured after 8 hrs by LC-MS/MS analysis; format: ADME, organism-based; details: read-out: Ct
[14] = tested on: H4; assay: Inhibition of sphere formation in human H4 cells assessed as fold reduction in sphere initiating frequency at 4 uM incubated for 10 days by microscopic analysis relative to control; format: functional; details: time 10 day
[15] = tested on: H4; assay: Inhibition of sphere formation in human H4 cells at 1 uM measured after 10 days in well containing 1 cells by microscopic analysis; format: functional, cell-based; details: time 10.0 day
[16] = Drug uptake in Sprague-Dawley rat blood at 10 to 90 ng/ml, po administered as single dose and measured after 8 hrs by LC-MS/MS analysis; format: ADME, organism-based; details: in vivo, dose 10-90 ng/ml
[17] = tested on: LN-229; assay: Inhibition of sphere formation in human LN-229 cells at 1 uM measured after 10 days in well containing 1000 cells by microscopic analysis; format: functional, cell-based; details: time 10.0 day
[18] = tested on: U-251; assay: Inhibition of sphere formation in human U-251MG cells at 1 uM measured after 10 days in well containing 10000 cells by microscopic analysis; format: functional, cell-based; details: time 10.0 day
[19] = tested on: Hs 683; assay: Inhibition of sphere formation in human Hs 683 cells at 1 uM measured after 10 days in well containing 10000 cells by microscopic analysis; format: functional, cell-based; details: time 10.0 day
[20] = Toxicity in male C57BL/6 mouse assessed as change in cellular structure of thymus at 45 mg/kg, po administered once a day for 2 weeks by H and E staining based analysis; format: organism-based; details: in vivo, 336 h
[21] = tested on: H4; assay: Inhibition of sphere formation in human H4 cells at 2 uM measured after 10 days in well containing 100 cells by microscopic analysis; format: functional, cell-based; details: time 10.0 day
[22] = Toxicity in female C57BL/6 mouse assessed as change in cellular structure of heart at 45 mg/kg, po administered once a day for 2 weeks by H and E staining based analysis; format: organism-based; details: in vivo, 336 h
[23] = Drug concentration in male Sprague-Dawley rat heart at 45 mg/kg, po measured after 8 hrs by LC-MS/MS analysis; format: ADME, organism-based; details: read-out: Ct
[24] = tested on: A549; assay: Antiproliferative activity against human A549 cells assessed as inhibition of cell growth incubated for 72 hrs by CCK-8 assay; format: functional, cell-based; details: A549, 72 h
[25] = tested on: MKN-45; assay: Antiproliferative activity against human MKN-45 cells assessed as inhibition of cell growth incubated for 72 hrs by CCK-8 assay; format: functional, cell-based; details: MKN-45, 72 h
[26] = tested on: H4; assay: Inhibition of sphere formation in human H4 cells at 2 uM measured after 10 days in well containing 1 cells by microscopic analysis; format: functional, cell-based; details: time 10.0 day
[27] = biological target: BUB3-interacting and GLEBS motif-containing protein ZNF207 (Homo sapiens, UniProt O43670); assay: Binding affinity to ZNF207 in human U-251MG cells assessed as thermal stabilization by measuring increase in melting temperature at 30 uM incubated for 3 hrs by CETSA; format: cell-based
Sequence of BUB3-interacting and GLEBS motif-containing protein ZNF207 (O43670 whole entry): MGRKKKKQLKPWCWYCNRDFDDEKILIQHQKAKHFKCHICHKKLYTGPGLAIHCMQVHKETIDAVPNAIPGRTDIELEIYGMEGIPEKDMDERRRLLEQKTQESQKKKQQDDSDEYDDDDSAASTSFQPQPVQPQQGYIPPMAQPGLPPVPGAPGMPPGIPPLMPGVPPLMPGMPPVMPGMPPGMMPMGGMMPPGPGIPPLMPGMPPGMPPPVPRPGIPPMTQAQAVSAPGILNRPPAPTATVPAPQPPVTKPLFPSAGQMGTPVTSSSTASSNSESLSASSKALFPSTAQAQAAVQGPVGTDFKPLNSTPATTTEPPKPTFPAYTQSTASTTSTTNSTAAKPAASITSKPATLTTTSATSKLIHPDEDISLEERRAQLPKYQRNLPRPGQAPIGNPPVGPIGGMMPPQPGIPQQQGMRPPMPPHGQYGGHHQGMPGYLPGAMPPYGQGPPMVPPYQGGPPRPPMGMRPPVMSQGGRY

[28] = Toxicity in male C57BL/6 mouse assessed as change in cellular structure of liver at 45 mg/kg, po administered once a day for 2 weeks by H and E staining based analysis; format: organism-based; details: in vivo, 336 h
[29] = tested on: H4; assay: Inhibition of sphere formation in human H4 cells incubated for 168 hrs by microscopic analysis; format: functional, cell-based; details: H4, 168 h
[30] = tested on: LN-229; assay: Antitumor activity against human LN-229 cells xenografted in BALB/c nude mouse assessed as tumor growth delay by measuring tumor volume at 15 mg/kg, po administered once a day and measured every 2 days for 49 days (reference value: 700 […]); format: functional; details: time 49 day
[31] = tested on: NCI-H460; assay: Antiproliferative activity against human NCI-H460 cells assessed as inhibition of cell growth incubated for 72 hrs by CCK-8 assay; format: functional, cell-based; details: NCI-H460, 72 h
[32] = tested on: LN-229; assay: Downregulation of SOX2 protein expression in human LN-229 cells at 2 to 4 uM incubated for 48 hrs by Western blot analysis; format: functional, cell-based; details: dose 2-4 µM
[33] = tested on: LN-229; assay: Inhibition of sphere formation in human LN-229 cells assessed as fold reduction in sphere initiating frequency at 8 uM incubated for 10 days by microscopic analysis relative to control; format: functional; details: time 10 day
[34] = Toxicity in female C57BL/6 mouse assessed as change in cellular structure of spleen at 45 mg/kg, po administered once a day for 2 weeks by H and E staining based analysis; format: organism-based; details: in vivo, 336 h
[35] = tested on: H4; assay: Inhibition of colony formation in human H4 cells assessed as reduction in number of cell clones treated on day 1 and measured after 14 days by crystal violet staining based microscopic analysis; format: functional; details: dose 0.625-5 µM, time 14.0 day
[36] = tested on: U-251; assay: Inhibition of sphere formation in human U-251MG cells at 2 uM measured after 10 days in well containing 10000 cells by microscopic analysis; format: functional, cell-based; details: time 10.0 day
[37] = tested on: LN-229-Luc; assay: Antitumor activity against human Ln-229-Luc cells xenografted in po dosed BALB/c nude mouse administered once a day and measured after 3 to 31 days; format: functional, organism-based; details: dose 15-45 mg/kg, time 3-31 day

In the case of N#CC1(C(=O)NCCC2CCN(Cc3ccccc3)CC2)CC2(Br)c3ccccc3C1c1ccccc12 (racemic), the “fold change (FC)” value [1] is reported as 2.8, the Activity [2] is reported as “Non-Toxic” and the inhibition at 5 µM [3] is reported as 100%. The inhibition [4] was “Dose-Dependent Effect”, the inhibition [5] was “Active” and the IC50 [6] was 8.53 µM. The Activity [7] was “Non-Toxic”, the Activity [8] was “Non-Toxic” and the concentration at 8 h [9] was 1400 ng/g. The Activity [10] was “Non-Toxic”, the inhibition [11] was “Active” and the inhibition [12] was “Active”. For the same compound, the concentration at 8 h [13] was 655 ng/g, the “fold change (FC)” value [14] was 32.7 and the inhibition [15] was “Active”. For the same compound, the Drug uptake [16] was “Active”, the inhibition [17] was “inactive” and the inhibition [18] was “inactive”. For the same compound, the inhibition [19] was “inactive”, the Activity [20] was “Non-Toxic” and the inhibition [21] was “Active”. For the same compound, the Activity [22] was “Non-Toxic”, the concentration at 8 h [23] was 193 ng/g and the IC50 [24] was 9.68 µM. For the same compound, the IC50 [25] was 3.84 µM, the inhibition [26] was “Active” and the ΔTm [27] was 5.2 °C. The Activity [28] was “Non-Toxic”, the IC50 [29] was 0.74 µM and the Activity [30] was 280 mm3. The IC50 [31] was 15.6 µM, the Activity [32] was “Active” and the “fold change (FC)” value [33] was 107.58. The Activity [34] was “Non-Toxic”, the inhibition [35] was “Dose-Dependent Effect” and the inhibition [36] was “inactive”. For the same compound, the Activity [37] was “Dose-Dependent Effect”.
